Test system: Aβ production
Test: Cellular Aβ IC50 determination (memapsin 2 activity in a cellular assay of Aβ production)
Format: cell-based, Chinese hamster
Settings: Cricetulus griseus; Chinese hamster ovary cells over-expressing human APP695 with London and Swedish mutations, 24 h, Aβ40 sandwich ELISA; read-out: M2 IC50
Protocol: The potency of compounds against memapsin 2 activity was determined in a cellular assay of Aβ production. […] Chinese hamster ovary cells that over-express human APP695 with the London and Swedish mutations were seeded in multi-well plates at 10% confluency. Compounds are dissolved in DMSO to concentrations near 1 mM, and diluted into culture media to a final concentration near 4 μM (final 0.4% DMSO). Compounds were diluted serially and applied to cells in multi-well plates 48 h after seeding. Incubation was continued in 5% CO2 at 37° C. for 24 h. Aliquots were removed and assayed for […] content using a sandwich ELISA (BioSource International). Amount of Aβ40 over the range of concentration of compounds, relative to control incubations, were fit to a 4-parameter IC50 model.

SMILES | IC50 [nM]
Cc1csc([C@H]2CCCN2C(=O)c2cc(C(=O)N[C@@H](Cc3ccccc3)[C@H](O)[C@H]3CCCN3)cc(N3CCCC3=O)c2)n1 [1-39, N-((1R,2S)-1-hydroxy-3-phenyl-1-((R)-pyrrolidin-2-yl)propan-2-yl)-3-((R)-2-(4-methylthiazol-2-yl)pyrrolidine-1-carbonyl)-5-(2-oxopyrrolidin-1-yl)benzamide] | < 500
Cc1csc([C@H]2CCCN2C(=O)c2cccc(C(=O)N[C@@H](Cc3ccccc3)[C@H](O)[C@H]3CCCN3)c2)n1 [1-40, N-((1R,2S)-1-hydroxy-3-phenyl-1-((R)-pyrrolidin-2-yl)propan-2-yl)-3-((R)-2-(4-methylthiazol-2-yl)pyrrolidine-1-carbonyl)benzamide] | 500 to 1000
Cc1csc(CN(C)C(=O)c2cccc(C(=O)N[C@@H](Cc3cc(F)cc(F)c3)[C@H](O)[C@H]3CCCN3)c2)n1 [1-41, N1-((1R,2S)-3-(3,5-difluorophenyl)-1-hydroxy-1-((R)-pyrrolidin-2-yl)propan-2-yl)-N3-methyl-N3-((4-methylthiazol-2-yl)methyl)isophthalamide] | > 1000
Cc1csc([C@H]2CCCN2C(=O)c2cc(C(=O)N[C@@H](Cc3ccccc3)[C@H](O)[C@H]3CCCN3)cc(N(C)C)c2)n1 [1-42, 3-(dimethylamino)-N-((1R,2S)-1-hydroxy-3-phenyl-1-((R)-pyrrolidin-2-yl)propan-2-yl)-5-((R)-2-(4-methylthiazol-2-yl)pyrrolidine-1-carbonyl)benzamide] | > 1000
Cc1csc([C@H]2CCCN2C(=O)c2cc(C(=O)N[C@@H](Cc3ccccc3)[C@H](O)[C@H]3CCCN3)cc(-c3cccc(C(F)(F)F)c3)c2)n1 [1-43, N-((1R,2S)-1-hydroxy-3-phenyl-1-((R)-pyrrolidin-2-yl)propan-2-yl)-5-((R)-2-(4-methylthiazol-2-yl)pyrrolidine-1-carbonyl)-3′-(trifluoromethyl)biphenyl-3-carboxamide] | > 1000
Cc1csc([C@H]2CCCN2C(=O)c2cccc(C(=O)N[C@@H](Cc3cc(F)cc(F)c3)[C@H](O)[C@H]3CCCN3)c2)n1 [1-44, N-((1R,2S)-3-(3,5-difluorophenyl)-1-hydroxy-1-((R)-pyrrolidin-2-yl)propan-2-yl)-3-((R)-2-(4-methylthiazol-2-yl)pyrrolidine-1-carbonyl)benzamide] | 500 to 1000
Cc1csc([C@H]2CCCN2C(=O)c2cc(CF)cc(C(=O)N[C@H](Cc3ccccc3)[C@H](O)[C@H]3C[C@@H](OCc4ccccc4)CN3)c2)n1 [1-45, N-((1R,2R)-1-((2R,4R)-4-(benzyloxy)pyrrolidin-2-yl)-1-hydroxy-3-phenylpropan-2-yl)-3-(fluoromethyl)-5-((R)-2-(4-methylthiazol-2-yl)pyrrolidine-1-carbonyl)benzamide] | > 1000
Cc1csc([C@H]2CCCN2C(=O)c2cc(C(=O)N[C@@H](Cc3ccccc3)[C@H](O)[C@H]3CCCN3)cc(N3CCC(F)(F)CC3)c2)n1 [1-46, 3-(4,4-difluoropiperidin-1-yl)-N-((1R,2S)-1-hydroxy-3-phenyl-1-((R)-pyrrolidin-2-yl)propan-2-yl)-5-((R)-2-(4-methylthiazol-2-yl)pyrrolidine-1-carbonyl)benzamide] | 500 to 1000
Cc1csc([C@H]2CCCN2C(=O)c2cccc(C(=O)N[C@@H](Cc3ccccc3)[C@H](O)[C@H]3C[C@H](F)CN3)c2)n1 [1-47, N-((1R,2S)-1-((2R,4S)-4-fluoropyrrolidin-2-yl)-1-hydroxy-3-phenylpropan-2-yl)-3-((R)-2-(4-methylthiazol-2-yl)pyrrolidine-1-carbonyl)benzamide] | > 1000
Cc1csc([C@H]2CCCN2C(=O)c2cccc(C(=O)N[C@@H](Cc3ccccc3)[C@H](O)[C@@H]3CCCN3)c2)n1 [1-48, N-((1R,2S)-1-hydroxy-3-phenyl-1-((S)-pyrrolidin-2-yl)propan-2-yl)-3-((R)-2-(4-methylthiazol-2-yl)pyrrolidine-1-carbonyl)benzamide] | > 1000
Cc1csc([C@H]2CCCN2C(=O)c2cc(C(=O)N[C@@H](Cc3cc(F)cc(F)c3)[C@H](O)[C@H]3CCCN3)cc(-c3ncco3)c2)n1 [1-49, N-((1R,2S)-3-(3,5-difluorophenyl)-1-hydroxy-1((R)-pyrrolidin-2-yl)propan-2-yl)-3-((R)-2-(4-methylthiazol-2-yl)pyrrolidine-1-carbonyl)-5-(oxazol-2-yl)benzamide] | < 500
Cc1csc([C@H]2CCCN2C(=O)c2cc(C(=O)N[C@@H](Cc3ccccc3)[C@H](O)[C@H]3CCCN3)cc(C3CC3)c2)n1 [1-50, 3-cyclopropyl-N-((1R,2S)-1-hydroxy-3-phenyl-1-((R)-pyrrolidin-2-yl)propan-2-yl)-5-((R)-2-(4-methylthiazol-2-yl)pyrrolidine-1-carbonyl)benzamide] | > 1000
Cc1csc([C@H]2CCCN2C(=O)c2cccc(C(=O)N[C@@H](Cc3ccccc3)[C@H](O)[C@H]3CC[C@@H](C)N3)c2)n1 [1-51, N-((1R,2S)-1-hydroxy-1-((2R,5R)-5-methylpyrrolidin-2-yl)-3-phenylpropan-2-yl)-3-((R)-2-(4-methylthiazol-2-yl)pyrrolidine-1-carbonyl)benzamide] | > 1000
Cc1csc([C@H]2CCCN2C(=O)c2cc(C(=O)N[C@@H](Cc3ccccc3)[C@H](O)[C@H]3C[C@@H](OCc4ccccc4)CN3)cc(-c3ncco3)c2)n1 [1-52, N-((1R,2S)-1-((2R,4R)-4-(benzyloxy)pyrrolidin-2-yl)-1-hydroxy-3-phenylpropan-2-yl)-3-((R)-2-(4-methylthiazol-2-yl)pyrrolidine-1-carbonyl)-5-(oxazol-2-yl)benzamide] | < 500
Cc1csc([C@H]2CCCN2C(=O)c2cccc(C(=O)N[C@@H](Cc3cccc(F)c3)[C@H](O)[C@H]3CCCN3)c2)n1 [1-53, N-((1R,2S)-3-(3-fluorophenyl)-1-hydroxy-1-((R)-pyrrolidin-2-yl)propan-2-yl)-3-((R)-2-(4-methylthiazol-2-yl)pyrrolidine-1-carbonyl)benzamide] | 500 to 1000
Cc1csc([C@H]2CCCN2C(=O)c2cncc(C(=O)N[C@@H](Cc3ccccc3)[C@H](O)CNCc3cc(Cl)nc(N(C)C)c3)c2)n1 [2-1, N-((2S,3R)-4-((2-chloro-6-(dimethylamino)pyridin-4-yl)methylamino)-3-hydroxy-1-phenylbutan-2-yl)-5-((R)-2-(4-methylthiazol-2-yl)pyrrolidine-1-carbonyl)nicotinamide, reference compound] | < 500
Cc1csc([C@H]2CCCN2C(=O)c2cc(C(=O)N[C@@H](Cc3ccccc3)[C@H](O)CNCc3cncc(C(C)C)c3)cc(-c3ccco3)c2)n1 [2-2, 3-(furan-2-yl)-N-((2S,3R)-3-hydroxy-4-((5-isopropylpyridin-3-yl)methylamino)-1-phenylbutan-2-yl)-5-((R)-2-(4-methylthiazol-2-yl)pyrrolidine-1-carbonyl)benzamide, reference compound] | < 500
Cc1cc(C(=O)N[C@@H](Cc2ccccc2)[C@H](O)CNCc2cncc(C(C)(C)C)c2)cc(C(=O)N2CCC[C@@H]2c2nc(C)co2)c1 [2-3, N-((2S,3R)-4-((5-tert-butylpyridin-3-yl)methylamino)-3-hydroxy-1-phenylbutan-2-yl)-3-methyl-5-((R)-2-(4-methyloxazol-2-yl)pyrrolidine-1-carbonyl)benzamide, reference compound] | < 500
Cc1coc([C@H]2CCCN2C(=O)c2cccc(C(=O)N[C@@H](Cc3ccccc3)[C@H](O)CNCc3cncc(C(C)(C)C)c3)c2)n1 [2-4, N-((2S,3R)-4-((5-tert-butylpyridin-3-yl)methylamino)-3-hydroxy-1-phenylbutan-2-yl)-3-((R)-2-(4-methyloxazol-2-yl)pyrrolidine-1-carbonyl)benzamide, reference compound] | < 500
CCn1cc(CNC[C@@H](O)[C@H](Cc2ccccc2)NC(=O)c2cc(C)cc(C(=O)N3CCC[C@@H]3c3nc(C)co3)c2)cn1 [2-5, N-((2S,3R)-4-((1-ethyl-1H-pyrazol-4-yl)methylamino)-3-hydroxy-1-phenylbutan-2-yl)-3-methyl-5-((R)-2-(4-methyloxazol-2-yl)pyrrolidine-1-carbonyl)benzamide, reference compound] | < 500
C=C(C)c1cccc(CNC[C@@H](O)[C@H](Cc2ccccc2)NC(=O)c2cccc(C(=O)N3CCC[C@@H]3c3nc(C)co3)c2)c1 [2-6, N-((2S,3R)-3-hydroxy-1-phenyl-4-(3-(prop-1-en-2-yl)benzylamino)butan-2-yl)-3-((R)-2-(4-methyloxazol-2-yl)pyrrolidine-1-carbonyl)benzamide, reference compound] | < 500
Cc1coc([C@H]2CCCN2C(=O)c2cc(CF)cc(C(=O)N[C@@H](Cc3ccccc3)[C@H](O)CNCc3cccc(C(C)(C)C)c3)c2)n1 [2-7, N-((2S,3R)-4-(3-tert-butylbenzylamino)-3-hydroxy-1-phenylbutan-2-yl)-3-(fluoromethyl)-5-((R)-2-(4-methyloxazol-2-yl)pyrrolidine-1-carbonyl)benzamide, reference compound] | < 500
Cc1cc(C(=O)N[C@@H](Cc2ccccc2)[C@H](O)CNCc2cncc(C(C)C)c2)cc(C(=O)N2CCC[C@@H]2c2nc(C)cs2)c1 [2-8, N-((2S,3R)-3-hydroxy-4-((5-isopropylpyridin-3-yl)methylamino)-1-phenylbutan-2-yl)-3-methyl-5-((R)-2-(4-methylthiazol-2-yl)pyrrolidine-1-carbonyl)benzamide, reference compound] | < 500
Cc1csc(CN(C(=O)c2cccc(C(=O)N[C@@H](Cc3ccccc3)[C@H](O)CNCc3cccc(C(F)(F)F)c3)c2)C2CC2)n1 [2-9, N1-cyclopropyl-N3-((2S,3R)-3-hydroxy-1-phenyl-4-(3-(trifluoromethyl)benzylamino)butan-2-yl)-N1-((4-methylthiazol-2-yl)methyl)isophthalamide, reference compound] | < 500

Reference: patent US20130102593A1, “PYRROLIDINE COMPOUNDS WHICH INHIBIT BETA-SECRETASE ACTIVITY AND METHODS OF USE THEREOF” (priority 2008, published 2013)
